Common to all, as to type: biochemical
For one test, the target named is SRC (Homo sapiens, UniProt P12931). Nature of the test: Inhibition of a panel of kinases, in vitro HotSpot kinase assay: SRC. As to conditions: D-compounds panel data; 1 μM ATP. The procedure: (§1) The degree of inhibition of a panel of kinases is determined using the in vitro HotSpot kinase assay (purified enzymes, ^33P-ATP, an appropriate substrate and 1 μM ATP).

Another test deals with T1, TEC (Homo sapiens, UniProt P42680).
T1 sequence (P42680 1-631): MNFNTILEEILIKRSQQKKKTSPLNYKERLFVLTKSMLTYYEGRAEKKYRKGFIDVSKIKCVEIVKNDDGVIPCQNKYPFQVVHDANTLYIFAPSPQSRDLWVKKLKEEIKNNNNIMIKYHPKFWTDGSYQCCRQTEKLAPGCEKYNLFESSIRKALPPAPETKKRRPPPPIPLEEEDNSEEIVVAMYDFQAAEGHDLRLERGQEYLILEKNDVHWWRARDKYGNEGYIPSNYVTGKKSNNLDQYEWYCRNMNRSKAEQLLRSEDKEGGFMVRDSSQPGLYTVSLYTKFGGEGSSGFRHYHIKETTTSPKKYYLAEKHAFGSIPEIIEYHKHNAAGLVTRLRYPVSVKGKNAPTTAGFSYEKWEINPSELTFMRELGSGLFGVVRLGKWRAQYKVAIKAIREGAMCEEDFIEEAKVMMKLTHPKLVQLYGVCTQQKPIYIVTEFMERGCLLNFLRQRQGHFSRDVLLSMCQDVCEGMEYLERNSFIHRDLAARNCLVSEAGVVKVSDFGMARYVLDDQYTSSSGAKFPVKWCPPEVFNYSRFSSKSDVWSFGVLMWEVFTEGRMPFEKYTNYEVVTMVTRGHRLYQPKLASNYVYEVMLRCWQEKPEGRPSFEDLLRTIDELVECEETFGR
In words: Inhibition of a panel of kinases, in vitro HotSpot kinase assay: TEC. Conditions: D-compounds panel data; 1 μM ATP. The procedure: as §1

A further test addresses T2, ITK (Homo sapiens, UniProt Q08881).
T2 sequence (Q08881 1-620): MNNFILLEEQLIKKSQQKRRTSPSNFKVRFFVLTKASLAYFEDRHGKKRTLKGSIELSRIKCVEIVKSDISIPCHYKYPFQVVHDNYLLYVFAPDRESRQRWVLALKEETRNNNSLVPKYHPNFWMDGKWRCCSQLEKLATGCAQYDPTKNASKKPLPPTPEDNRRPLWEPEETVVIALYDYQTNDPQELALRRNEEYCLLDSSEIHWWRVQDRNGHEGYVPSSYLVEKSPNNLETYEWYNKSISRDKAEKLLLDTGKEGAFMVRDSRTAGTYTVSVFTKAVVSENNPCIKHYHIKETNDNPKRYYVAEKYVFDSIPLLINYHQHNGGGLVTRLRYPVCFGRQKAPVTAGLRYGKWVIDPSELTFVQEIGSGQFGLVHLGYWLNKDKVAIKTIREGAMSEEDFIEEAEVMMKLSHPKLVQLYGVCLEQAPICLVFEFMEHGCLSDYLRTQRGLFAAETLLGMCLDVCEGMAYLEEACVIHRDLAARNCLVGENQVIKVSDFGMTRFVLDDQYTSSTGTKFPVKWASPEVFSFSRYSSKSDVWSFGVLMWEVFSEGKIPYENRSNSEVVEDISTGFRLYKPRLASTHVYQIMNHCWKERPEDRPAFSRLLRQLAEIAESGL
In words: Inhibition of a panel of kinases, in vitro HotSpot kinase assay: ITK. As to conditions: D-compounds panel data; 1 μM ATP. The protocol: as §1

A further test addresses LCK (Homo sapiens, UniProt P06239). Nature of the test: Inhibition of a panel of kinases, in vitro HotSpot kinase assay: LCK. Conditions: D-compounds panel data; 1 μM ATP; read-out: IC50 LCK.
A further test concerns the target EGFR (Homo sapiens, UniProt P00533). Nature of the test: Inhibition of a panel of kinases, in vitro HotSpot kinase assay: EGFR. Conditions: D-compounds panel data; 1 μM ATP. The procedure: as §1
Another test has as its target T3, JAK3 (Homo sapiens, UniProt P52333).
T3 sequence (P52333 1-1124): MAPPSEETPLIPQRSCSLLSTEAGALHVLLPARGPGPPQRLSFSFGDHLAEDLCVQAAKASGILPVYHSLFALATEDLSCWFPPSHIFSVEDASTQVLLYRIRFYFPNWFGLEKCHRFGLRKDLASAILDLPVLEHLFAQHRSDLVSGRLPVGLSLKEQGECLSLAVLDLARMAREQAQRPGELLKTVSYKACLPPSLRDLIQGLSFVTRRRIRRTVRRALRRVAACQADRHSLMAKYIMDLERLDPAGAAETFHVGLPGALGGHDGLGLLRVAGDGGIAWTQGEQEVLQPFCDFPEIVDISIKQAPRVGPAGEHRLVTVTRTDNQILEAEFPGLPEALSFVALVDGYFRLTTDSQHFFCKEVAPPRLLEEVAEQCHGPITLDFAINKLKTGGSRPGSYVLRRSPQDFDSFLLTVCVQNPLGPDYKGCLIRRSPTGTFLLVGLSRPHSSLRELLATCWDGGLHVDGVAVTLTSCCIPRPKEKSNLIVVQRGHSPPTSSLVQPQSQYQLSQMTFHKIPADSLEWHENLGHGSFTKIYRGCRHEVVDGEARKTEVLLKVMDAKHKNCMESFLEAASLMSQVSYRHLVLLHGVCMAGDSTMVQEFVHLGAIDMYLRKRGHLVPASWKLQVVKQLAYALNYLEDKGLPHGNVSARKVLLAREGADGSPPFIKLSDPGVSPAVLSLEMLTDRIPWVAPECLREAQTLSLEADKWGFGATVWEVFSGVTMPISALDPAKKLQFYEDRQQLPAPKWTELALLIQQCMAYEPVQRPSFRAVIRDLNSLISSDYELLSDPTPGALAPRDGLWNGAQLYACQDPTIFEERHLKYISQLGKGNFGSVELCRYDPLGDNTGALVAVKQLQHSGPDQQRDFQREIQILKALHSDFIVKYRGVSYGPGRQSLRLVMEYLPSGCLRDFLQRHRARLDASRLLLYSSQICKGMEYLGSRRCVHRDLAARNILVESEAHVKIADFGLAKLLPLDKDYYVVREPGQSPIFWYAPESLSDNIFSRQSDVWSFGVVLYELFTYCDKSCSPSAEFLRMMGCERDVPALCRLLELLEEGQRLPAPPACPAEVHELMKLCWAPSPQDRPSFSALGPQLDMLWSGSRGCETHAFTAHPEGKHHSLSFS
In words: Inhibition of a panel of kinases, in vitro HotSpot kinase assay: JAK3. Conditions: D-compounds panel data; 1 μM ATP; read-out: IC50 JAK3.

Chain of EGFR (P00533 25-1210): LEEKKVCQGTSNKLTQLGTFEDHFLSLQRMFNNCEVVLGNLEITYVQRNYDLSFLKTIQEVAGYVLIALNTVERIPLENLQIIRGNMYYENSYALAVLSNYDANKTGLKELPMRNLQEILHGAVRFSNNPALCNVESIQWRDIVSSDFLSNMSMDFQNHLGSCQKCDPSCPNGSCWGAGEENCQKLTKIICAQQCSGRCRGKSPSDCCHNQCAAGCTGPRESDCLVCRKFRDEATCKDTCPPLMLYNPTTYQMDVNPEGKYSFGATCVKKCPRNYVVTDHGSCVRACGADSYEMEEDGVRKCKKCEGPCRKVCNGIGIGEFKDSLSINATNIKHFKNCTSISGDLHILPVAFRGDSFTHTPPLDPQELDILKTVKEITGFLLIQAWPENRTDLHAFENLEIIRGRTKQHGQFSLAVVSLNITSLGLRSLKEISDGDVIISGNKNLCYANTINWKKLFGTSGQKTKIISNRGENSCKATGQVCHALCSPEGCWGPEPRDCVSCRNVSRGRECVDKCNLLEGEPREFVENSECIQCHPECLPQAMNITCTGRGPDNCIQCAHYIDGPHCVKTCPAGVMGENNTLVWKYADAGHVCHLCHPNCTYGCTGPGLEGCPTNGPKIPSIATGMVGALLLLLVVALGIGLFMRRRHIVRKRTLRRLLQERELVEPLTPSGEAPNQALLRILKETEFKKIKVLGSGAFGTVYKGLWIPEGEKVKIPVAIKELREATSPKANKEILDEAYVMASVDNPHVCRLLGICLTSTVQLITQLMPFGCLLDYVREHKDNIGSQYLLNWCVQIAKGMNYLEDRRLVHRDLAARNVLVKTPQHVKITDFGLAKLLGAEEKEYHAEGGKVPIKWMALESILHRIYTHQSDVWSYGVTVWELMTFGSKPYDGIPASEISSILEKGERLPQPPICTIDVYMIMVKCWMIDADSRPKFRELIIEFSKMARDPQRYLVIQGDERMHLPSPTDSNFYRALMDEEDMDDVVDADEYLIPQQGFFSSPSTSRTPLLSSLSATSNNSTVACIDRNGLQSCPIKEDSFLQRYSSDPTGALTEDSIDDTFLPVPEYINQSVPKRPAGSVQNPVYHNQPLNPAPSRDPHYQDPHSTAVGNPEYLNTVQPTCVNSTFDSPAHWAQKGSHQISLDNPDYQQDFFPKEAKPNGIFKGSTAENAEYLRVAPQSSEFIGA
Chain of SRC (P12931 whole entry): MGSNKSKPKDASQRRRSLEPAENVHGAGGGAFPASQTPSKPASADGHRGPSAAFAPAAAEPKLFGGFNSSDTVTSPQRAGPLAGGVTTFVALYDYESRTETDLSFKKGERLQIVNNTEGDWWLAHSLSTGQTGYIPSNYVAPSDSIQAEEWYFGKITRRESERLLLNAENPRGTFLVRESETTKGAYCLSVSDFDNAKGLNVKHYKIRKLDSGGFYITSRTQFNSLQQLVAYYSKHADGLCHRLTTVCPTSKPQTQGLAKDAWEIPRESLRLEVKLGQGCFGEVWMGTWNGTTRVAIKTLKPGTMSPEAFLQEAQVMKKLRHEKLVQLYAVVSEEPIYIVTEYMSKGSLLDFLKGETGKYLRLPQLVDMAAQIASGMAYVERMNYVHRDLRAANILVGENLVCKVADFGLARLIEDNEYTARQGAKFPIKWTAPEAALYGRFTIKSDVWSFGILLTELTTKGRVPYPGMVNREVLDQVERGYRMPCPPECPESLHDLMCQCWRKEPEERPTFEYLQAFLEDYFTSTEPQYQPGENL
Chain of LCK (P06239 whole entry): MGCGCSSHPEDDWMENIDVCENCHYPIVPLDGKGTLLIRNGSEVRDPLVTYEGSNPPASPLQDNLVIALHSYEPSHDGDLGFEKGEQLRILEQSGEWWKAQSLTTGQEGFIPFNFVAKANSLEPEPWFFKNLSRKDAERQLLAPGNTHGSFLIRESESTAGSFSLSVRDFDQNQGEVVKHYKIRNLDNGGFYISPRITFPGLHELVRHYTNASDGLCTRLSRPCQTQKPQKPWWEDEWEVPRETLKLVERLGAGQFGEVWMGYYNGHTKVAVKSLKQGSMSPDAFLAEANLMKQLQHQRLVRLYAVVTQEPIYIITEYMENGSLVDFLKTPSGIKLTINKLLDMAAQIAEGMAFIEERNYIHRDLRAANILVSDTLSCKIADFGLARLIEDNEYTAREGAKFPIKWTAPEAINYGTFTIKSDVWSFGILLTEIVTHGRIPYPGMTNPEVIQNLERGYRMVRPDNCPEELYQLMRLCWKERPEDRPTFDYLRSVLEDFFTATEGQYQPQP

The term IC50 denotes the point on the concentration scale where inhibition reaches its midpoint. Regarding `C[C@@H]1[C@H](NC(=O)c2ccc(C3CC3)cc2)CCCN1c1cnc(C(N)=O)c(Nc2ccc(C3CCN(C)CC3)cc2)n1` [Example D-301, 5-[(2R,3R)-3-(4-cyclopropylbenzamido)-2-methylpiperidin-1-yl]-3-{[4-(1-methylpiperidin-4-yl)phenyl]amino}pyrazine-2-carboxamide], the IC50 against SRC lay within 100 to 1000 nM; against TEC, 10 to 100 nM; against ITK it was 100 to 1000 nM; on LCK, 100 to 1000 nM; at EGFR, 100 to 1000 nM; on JAK3, 1000 to 10000 nM.
On to `C[C@@H]1[C@H](NC(=O)c2ccc(C3CC3)cc2)CCCN1c1cnc(C(N)=O)c(Nc2cnn(C)c2C(F)(F)F)n1` [Example D-276, 5-[(2R,3R)-3-(4-cyclopropylbenzamido)-2-methylpiperidin-1-yl]-3-{[1-methyl-5-(trifluoromethyl)-1H-pyrazol-4-yl]amino}pyrazine-2-carboxamide], for which the IC50 against SRC, against TEC, on ITK, at LCK, at EGFR and on JAK3 was more than 10000 nM in each case.
On to `C[C@@H]1[C@H](NC(=O)c2ccc(N(C)C)cc2)CCCN1c1cnc(C(N)=O)c(Nc2cnn(C)c2)n1` [Example D-24, 5-[(2R,3R)-3-[4-(dimethylamino)benzamido]-2-methylpiperidin-1-yl]-3-[(1-methyl-1H-pyrazol-4-yl)amino]pyrazine-2-carboxamide], for which the IC50 against SRC was 100 to 1000 nM; on TEC, not above 10 nM; at ITK, 100 to 1000 nM; at LCK it was 10 to 100 nM; against EGFR, 1000 to 10000 nM; at JAK3, 1000 to 10000 nM.
As for `C[C@@H]1[C@H](NC(=O)c2ccc3[nH]cnc3c2)CCCN1c1cnc(C(N)=O)c(Nc2cnn(C)c2)n1` [Example D-262, N-[(2R,3R)-1-{5-carbamoyl-6-[(1-methyl-1H-pyrazol-4-yl)amino]pyrazin-2-yl}-2-methylpiperidin-3-yl]-1H-1,3-benzodiazole-5-carboxamide], the IC50 against SRC was 10 to 100 nM; on TEC it was not above 10 nM; against ITK, 100 to 1000 nM; on LCK, 10 to 100 nM; on EGFR, 1000 to 10000 nM; at JAK3, 1000 to 10000 nM.
In the case of `C[C@@H]1[C@H](NC(=O)c2ccc(C3CC3)c(O)c2)CCCN1c1cnc(C(N)=O)c(Nc2cnn(C)c2)n1` [Example D-245, 5-[(2R,3R)-3-(4-cyclopropyl-3-hydroxybenzamido)-2-methylpiperidin-1-yl]-3-[(1-methyl-1H-pyrazol-4-yl)amino]pyrazine-2-carboxamide], the IC50 at SRC was 10 to 100 nM; on TEC, not above 10 nM; against ITK it was 100 to 1000 nM; on LCK, 100 to 1000 nM; on EGFR, 1000 to 10000 nM; on JAK3, 100 to 1000 nM.
`C[C@@H]1[C@H](NC(=O)c2ccc(C3CC3)cc2)CCCN1c1cnc(C(N)=O)c(Nc2cn[nH]c2)n1` [Example D-282, 5-[(2R,3R)-3-(4-cyclopropylbenzamido)-2-methylpiperidin-1-yl]-3-[(1H-pyrazol-4-yl)amino]pyrazine-2-carboxamide]: the concentration for half-maximal inhibition (IC50) is 100 to 1000 nM on SRC; 10 to 100 nM against TEC; 100 to 1000 nM at ITK; 100 to 1000 nM on LCK; 1000 to 10000 nM against EGFR; more than 10000 nM on JAK3.
Regarding `COCCn1cc(Nc2nc(N3CCC[C@@H](NC(=O)c4ccc(C5CC5)cc4)[C@H]3C)cnc2C(N)=O)cn1` [Example D-270, 5-[(2R,3R)-3-(4-cyclopropylbenzamido)-2-methylpiperidin-1-yl]-3-{[1-(2-methoxyethyl)-1H-pyrazol-4-yl]amino}pyrazine-2-carboxamide], the IC50 was 100 to 1000 nM on SRC; 100 to 1000 nM against TEC; 100 to 1000 nM on ITK; 100 to 1000 nM at LCK; 1000 to 10000 nM against EGFR; 1000 to 10000 nM at JAK3.
As for `C[C@@H]1[C@H](NC(=O)c2cc3n(n2)CCC3)CCCN1c1cnc(C(N)=O)c(Nc2cnn(C)c2)n1` [Example D-263, 3-[(1-methyl-1H-pyrazol-4-yl)amino]-5-[(2R,3R)-2-methyl-3-{4H,5H,6H-pyrrolo[1,2-b]pyrazole-2-amido}piperidin-1-yl]pyrazine-2-carboxamide], the IC50 was 10 to 100 nM against SRC; not above 10 nM at TEC; 100 to 1000 nM against ITK; 10 to 100 nM on LCK; 100 to 1000 nM at EGFR; 1000 to 10000 nM on JAK3.
Consider `C[C@@H]1[C@H](NC(=O)c2ccc(C3CC3)cc2)CCCN1c1cnc(C(N)=O)c(Nc2cnn(C(F)F)c2)n1` [Example D-275, 5-[(2R,3R)-3-(4-cyclopropylbenzamido)-2-methylpiperidin-1-yl]-3-{[1-(difluoromethyl)-1H-pyrazol-4-yl]amino}pyrazine-2-carboxamide], for which the IC50 against SRC is 100 to 1000 nM; on TEC, 10 to 100 nM; against ITK it was 1000 to 10000 nM; on LCK, 1000 to 10000 nM; against EGFR, more than 10000 nM; on JAK3, more than 10000 nM.
Regarding `C[C@@H]1[C@H](NC(=O)c2ccc(C3CC3)cc2)CCCN1c1cnc(C(N)=O)c(Nc2ccc3c(c2)CCOC3)n1` [Example D-303, 5-[(2R,3R)-3-(4-cyclopropylbenzamido)-2-methylpiperidin-1-yl]-3-[(3,4-dihydro-1H-2-benzopyran-6-yl)amino]pyrazine-2-carboxamide], the IC50 on SRC is 1000 to 10000 nM; at TEC, 10 to 100 nM; against ITK, 1000 to 10000 nM; at LCK, more than 10000 nM; against EGFR, more than 10000 nM; on JAK3 it was more than 10000 nM.

Values taken from patent publication US20210070748A1, “INHIBITORS OF BRUTONS TYROSINE KINASE” (Pharmacyclics LLC, priority 2015, published 2021).
